We go through 12 compounds from patent US12643881B2, “Bicyclic amine CDK12 inhibitors” (Incyte Corporation, priority 2021, dated 2026).

Bounds are passed on as bounds.

The target in the experiment is T1, CDK12 complexed with Cyclin K (Homo sapiens, UniProt Q9NYV4).
T1 construct: GST (N)
T1 sequence (Q9NYV4 whole entry): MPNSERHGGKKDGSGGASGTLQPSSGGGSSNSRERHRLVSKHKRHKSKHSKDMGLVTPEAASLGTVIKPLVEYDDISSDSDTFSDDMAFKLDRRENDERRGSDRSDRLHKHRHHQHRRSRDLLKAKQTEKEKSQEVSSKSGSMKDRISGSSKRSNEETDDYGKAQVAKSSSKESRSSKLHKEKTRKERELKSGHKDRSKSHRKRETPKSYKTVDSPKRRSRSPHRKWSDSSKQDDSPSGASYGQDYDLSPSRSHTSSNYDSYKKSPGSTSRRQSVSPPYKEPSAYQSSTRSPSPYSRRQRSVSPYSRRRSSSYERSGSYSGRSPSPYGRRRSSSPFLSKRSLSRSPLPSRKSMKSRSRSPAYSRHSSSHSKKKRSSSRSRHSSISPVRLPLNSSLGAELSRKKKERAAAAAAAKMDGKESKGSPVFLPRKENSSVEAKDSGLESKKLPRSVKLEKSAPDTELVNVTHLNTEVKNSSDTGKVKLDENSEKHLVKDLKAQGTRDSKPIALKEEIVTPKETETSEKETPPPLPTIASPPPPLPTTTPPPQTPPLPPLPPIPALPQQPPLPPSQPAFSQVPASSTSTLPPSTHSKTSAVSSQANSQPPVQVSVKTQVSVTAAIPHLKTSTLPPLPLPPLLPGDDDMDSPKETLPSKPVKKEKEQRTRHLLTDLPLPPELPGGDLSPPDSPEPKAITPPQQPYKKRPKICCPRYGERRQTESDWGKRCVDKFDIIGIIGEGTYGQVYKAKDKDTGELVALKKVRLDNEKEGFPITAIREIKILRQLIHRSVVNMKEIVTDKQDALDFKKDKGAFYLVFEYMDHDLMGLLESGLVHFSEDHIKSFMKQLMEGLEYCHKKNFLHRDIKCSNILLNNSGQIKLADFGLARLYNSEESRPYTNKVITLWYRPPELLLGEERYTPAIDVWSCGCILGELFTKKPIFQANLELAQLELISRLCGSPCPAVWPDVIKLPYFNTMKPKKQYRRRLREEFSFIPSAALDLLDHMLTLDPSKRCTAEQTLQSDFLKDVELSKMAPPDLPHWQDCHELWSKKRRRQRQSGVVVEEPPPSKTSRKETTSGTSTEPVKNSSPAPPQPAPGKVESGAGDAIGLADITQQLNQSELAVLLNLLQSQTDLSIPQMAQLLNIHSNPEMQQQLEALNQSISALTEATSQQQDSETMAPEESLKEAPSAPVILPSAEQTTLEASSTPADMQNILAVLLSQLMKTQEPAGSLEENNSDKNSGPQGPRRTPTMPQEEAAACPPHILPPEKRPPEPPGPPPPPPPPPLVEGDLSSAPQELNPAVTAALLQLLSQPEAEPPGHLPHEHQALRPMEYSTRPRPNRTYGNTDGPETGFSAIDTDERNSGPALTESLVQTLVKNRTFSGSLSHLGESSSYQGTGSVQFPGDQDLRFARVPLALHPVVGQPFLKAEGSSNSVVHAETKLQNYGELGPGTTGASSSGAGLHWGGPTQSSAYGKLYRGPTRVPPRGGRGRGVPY
T1 sequence (O75909 whole entry partner): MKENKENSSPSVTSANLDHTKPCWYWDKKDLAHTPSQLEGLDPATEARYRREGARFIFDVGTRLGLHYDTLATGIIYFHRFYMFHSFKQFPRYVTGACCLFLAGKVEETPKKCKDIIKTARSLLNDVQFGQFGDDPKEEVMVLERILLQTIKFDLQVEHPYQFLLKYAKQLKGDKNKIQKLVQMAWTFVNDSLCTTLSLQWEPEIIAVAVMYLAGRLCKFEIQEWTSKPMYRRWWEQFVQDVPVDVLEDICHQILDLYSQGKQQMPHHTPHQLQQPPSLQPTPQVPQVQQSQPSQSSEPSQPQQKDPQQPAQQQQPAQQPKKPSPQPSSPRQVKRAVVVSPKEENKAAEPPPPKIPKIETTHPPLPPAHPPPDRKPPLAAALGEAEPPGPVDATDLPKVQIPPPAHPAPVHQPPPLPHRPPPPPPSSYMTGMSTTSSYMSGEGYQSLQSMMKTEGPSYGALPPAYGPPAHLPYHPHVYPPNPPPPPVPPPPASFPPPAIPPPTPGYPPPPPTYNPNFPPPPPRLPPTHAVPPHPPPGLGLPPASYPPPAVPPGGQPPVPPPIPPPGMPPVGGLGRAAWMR
As to the kind of experiment: Alternative CDK Enzymatic Assays (HTRF, pre-incubation with compounds and 1 mM ATP), Example A2. Conditions: enzyme pre-incubated with compounds and 1 mM ATP for 60 minutes; reaction 120 minutes at 25° C. The format is biochemical. Put shortly:
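GST-tagged human CDK12 co-expressed with full-length Cyclin K (baculovirus), pre-incubated 60 min with compounds and 1 mM ATP; reaction started with 1 mM ATP and 50 nM ULight-4E-BP1 peptide, 120 min at 25 °C, pH 7.5 HEPES. EDTA-stopped, Eu-anti-phospho-4E-BP1 HTRF (665/620 nm); IC50 from 3- or 4-parameter fit vs DMSO/no-enzyme controls.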
(In general: In TR-FRET formats the signal depends on donor and acceptor labels being close together.)
With `C=CC(=O)Nc1cc2nc(N3CC[C@H](O)[C@@H](Nc4ncc(C(F)(F)F)cn4)C3)n(C)c2cc1C` [Example 149, N-(2-((3S,4S)-4-Hydroxy-3-((5-(trifluoromethyl)pyrimidin-2-yl)amino)piperidin-1-yl)-1,6-dimethyl-1H-benzo[d]imidazol-5-yl)acrylamide], the IC50 was above 500 nM.

Turning to `C=CC(=O)Nc1cc2nc(N3CCC[C@@H](Nc4ncc(C(F)(F)F)cn4)C3)n(C)c2cc1C1CC1` [Example 150, (R)—N-(6-Cyclopropyl-1-methyl-2-(3-((5-(trifluoromethyl)pyrimidin-2-yl)amino)piperidin-1-yl)-1H-benzo[d]imidazol-5-yl)acrylamide], the half-inhibitory concentration (IC50) was below 50 nM.

In the case of `C=CC(=O)Nc1ccc2c(c1)nc(N1CCC[C@@H](Nc3cc(OC)c(C#N)cn3)C1)n2C` [Example 151, (R)—N-(2-(3-((5-Cyano-4-methoxypyridin-2-yl)amino)piperidin-1-yl)-1-methyl-1H-benzo[d]imidazol-5-yl)acrylamide], the IC50 was below 50 nM.

Consider `C=CC(=O)Nc1ccc2c(c1)nc(N1CCC[C@@H](Nc3ncc(C(F)(F)F)c(N4CCN(C)CC4)n3)C1)n2C` [Example 152, (R)—N-(1-Methyl-2-(3-((4-(4-methylpiperazin-1-yl)-5-(trifluoromethyl)pyrimidin-2-yl)amino)piperidin-1-yl)-1H-benzo[d]imidazol-5-yl)acrylamide], for which the concentration for half-maximal inhibition (IC50) is below 50 nM.

Turning to `C=CC(=O)Nc1cc2nc(N3CCC[C@@H](Nc4ncc(C(F)(F)F)cn4)C3)n(C)c2cc1CC` [Example 153, (R)—N-(6-Ethyl-1-methyl-2-(3-((5-(trifluoromethyl)pyrimidin-2-yl)amino)piperidin-1-yl)-1H-benzo[d]imidazol-5-yl)acrylamide], the half-maximal inhibitory concentration (IC50) is below 50 nM.

Consider `C=CC(=O)Nc1cc2nc(N3CCC[C@@H](Nc4ncc(C(F)(F)F)cn4)C3)n(C)c2cc1C(C)C` [Example 154, (R)—N-(6-Isopropyl-1-methyl-2-(3-((5-(trifluoromethyl)pyrimidin-2-yl)amino)piperidin-1-yl)-1H-benzo[d]imidazol-5-yl)acrylamide], for which the concentration for half-maximal inhibition (IC50) is below 50 nM.

Take `C=CC(=O)Nc1c(C(C)C)cc2c(nc(N3CCC[C@@H](Nc4ncc(C(F)(F)F)cn4)C3)n2C)c1C` [Example 155, (R)—N-(6-Isopropyl-1,4-dimethyl-2-(3-((5-(trifluoromethyl)pyrimidin-2-yl)amino)piperidin-1-yl)-1H-benzo[d]imidazol-5-yl)acrylamide]: the IC50 is below 50 nM.

For the compound `C=CC(=O)Nc1ccc2c(nc(N3CCC[C@@H](Nc4ncc(C(F)(F)F)cn4)C3)n2C)c1C` [Example 156, (R)—N-(1,4-Dimethyl-2-(3-((5-(trifluoromethyl)pyrimidin-2-yl)amino)piperidin-1-yl)-1H-benzo[d]imidazol-5-yl)acrylamide], the IC50 is below 50 nM.

For `C=CC(=O)Nc1cc2nc(N3C[C@H](F)C[C@@H](Nc4ncc(C#N)c(N(C)C)n4)C3)n(C)c2cc1C` [Example 157, N-(2-((3R,5R)-3-((5-Cyano-4-(dimethylamino)pyrimidin-2-yl)amino)-5-fluoropiperidin-1-yl)-1,6-dimethyl-1H-benzo[d]imidazol-5-yl)acrylamide], the IC50 is 50 to 500 nM.

Regarding `C=CC(=O)Nc1cc2nc(N3C[C@H](F)C[C@@H](Nc4ncc(C#N)c(NC)n4)C3)n(C)c2cc1C` [Example 158, N-(2-((3R,5R)-3-((5-Cyano-4-(methylamino)pyrimidin-2-yl)amino)-5-fluoropiperidin-1-yl)-1,6-dimethyl-1H-benzo[d]imidazol-5-yl)acrylamide], the concentration for half-maximal inhibition (IC50) was below 50 nM.

With `C=CC(=O)Nc1cc2nc(N3C[C@H](F)C[C@@H](Nc4ccc(C(F)(F)F)cn4)C3)n(C)c2cc1C` [Example 159], the IC50 lay in the range of 50 to 500 nM.

Turning to `C=CC(=O)Nc1cc2nc(N3C[C@H](F)C[C@@H](Nc4ncc(C(F)F)cn4)C3)n(C)c2cc1C` [Example 160, N-(2-((3R,5R)-3-((5-(Difluoromethyl)pyrimidin-2-yl)amino)-5-fluoropiperidin-1-yl)-1,6-dimethyl-1H-benzo[d]imidazol-5-yl)acrylamide], the half-inhibitory concentration (IC50) was in the range of 50 to 500 nM.

As a reminder, the IC50 is the concentration that gives 50% inhibition.
